Converted amounts (≈) assume the structure as drawn.
Experiments:
31 fungal strains = assay: In vitro antifungal assays, all isolates; format: cell-based; conditions: over the fungal strains tested
Experimental: (§1) In vitro studies were performed including a total of 31 fungal strains. The strains were obtained from the American Type Culture Collection (ATCC) or were isolated locally and provided by the fungal research centers at Alazhar and Assiut universities, Egypt. Dabigatran's antifungal activity was tested against 31 fungal strains, as previously described. (Johnson, T. R. and Case, C. L., “Laboratory experiments in microbiology” Pearson/Benjamin Cummings (2004)) The in vitro studies included a total of 31 fungal strains. Fungal strains were separately grown in universal tubes with 20 ml of Sabouraud's dextrose broth for 3-7 days to create inocula for antifungal tests. Bioassays were carried out in 10 cm sterile Petri dishes containing 15 ml Sabouraud's dextrose agar medium and microbial suspension. Using a sterile cork borer, 5 mm diameter cavities were bored in the solidified agar (3 cavities/plate) after the media had hardened. […] Controls were prepared using DMSO and fluconazole. Candida cultures were incubated for 72 hours at 27° C., while other fungal cultures were incubated for up to seven days.

[1] = test system: Geotricurn candidum RCMB 026008; assay: In vitro antifungal assay (agar well); format: cell-based, Geotricum candidum
Experimental: as §1

[2] = test system: Candida tropicalis RCMB 005004; assay: In vitro antifungal assay (agar well); format: cell-based; conditions: 72 hours at 27° C.
Experimental: as §1

[3] = test system: Trichophyton mentagrophytes AUMC No. 14492; assay: In vitro antifungal assay (agar well); format: cell-based
Experimental: as §1

[4] = test system: Penicllium marneffeii RCMB 001034; assay: In vitro antifungal assay (agar well); format: cell-based
Experimental: as §1

[5] = test system: Candida alibicans AUMC No. 9160; assay: In vitro antifungal assay (agar well); format: cell-based; conditions: 72 hours at 27° C.
Experimental: as §1

[6] = test system: Candida glabrata AUMC No. 9166; assay: In vitro antifungal assay (agar well); format: cell-based; conditions: 72 hours at 27° C.
Experimental: as §1

[7] = test system: Microsporum canis AUMC No. 14454; assay: In vitro antifungal assay (agar well); format: cell-based
Experimental: as §1

[8] = test system: Penicillium aurantiogriseum IMI 89372; assay: In vitro antifungal assay (agar well); format: cell-based
Experimental: as §1

[9] = test system: Candida lipolytica RCMB 005007; assay: In vitro antifungal assay (agar well); format: cell-based; conditions: 72 hours at 27° C.
Experimental: as §1

[10] = test system: Fusarium moniliforme RCMB 001006; assay: In vitro antifungal assay (agar well); format: cell-based
Experimental: as §1

[11] = test system: Penicillium marneffei AUMC No. 9370; assay: In vitro antifungal assay (agar well); format: cell-based
Experimental: as §1

[12] = test system: Trichophyton rubrum AUMC No. 1804; assay: In vitro antifungal assay (agar well); format: cell-based
Experimental: as §1

[13] = test system: Aspergillus terreus AUMC No. 14389; assay: In vitro antifungal assay (agar well); format: cell-based
Experimental: as §1

[14] = test system: Sporotlirix schenckii AUMC No. 2739; assay: In vitro antifungal assay (agar well); format: cell-based
Experimental: as §1

[15] = test system: Candida albicans RCMB 005003 (1) ATCC 10231; assay: In vitro antifungal assay (agar well); format: cell-based; conditions: 72 hours at 27° C.
Experimental: as §1

[16] = test system: Penicillium italicum RCMB 001018 (1) IMI 193019; assay: In vitro antifungal assay (agar well); format: cell-based
Experimental: as §1

[17] = test system: Aspergillus flavus RCMB 002002; assay: In vitro antifungal assay (agar well); format: cell-based
Experimental: as §1

[18] = test system: Candida tropicalis AUMC No. 9158; assay: In vitro antifungal assay (agar well); format: cell-based; conditions: 72 hours at 27° C.
Experimental: as §1

[19] = test system: Aspergillus fumigatus AUMC No. 14358; assay: In vitro antifungal assay (agar well); format: cell-based
Experimental: as §1

[20] = test system: Cryptococcus neoformas RCMB 0049001; assay: In vitro antifungal assay (agar well); format: cell-based
Experimental: as §1

[21] = test system: Aspergillus nidulans AUMC No. 14333; assay: In vitro antifungal assay (agar well); format: cell-based
Experimental: as §1

[22] = test system: Cryptococcus neoformans AUMC No. 2795; assay: In vitro antifungal assay (agar well); format: cell-based
Experimental: as §1

[23] = test system: Aspergillus flavus AUMC No. 1276; assay: In vitro antifungal assay (agar well); format: cell-based
Experimental: as §1

[24] = test system: Mucor circillelloides AUMC No. 3704; assay: In vitro antifungal assay (agar well); format: cell-based
Experimental: as §1

[25] = test system: Aspergillus ustus AUMC No. 3605; assay: In vitro antifungal assay (agar well); format: cell-based
Experimental: as §1

[26] = test system: Aspergillus niger AUMC No. 14408; assay: In vitro antifungal assay (agar well); format: cell-based
Experimental: as §1

[27] = test system: Penicillium expansurn RCMB 001001 IMI28169; assay: In vitro antifungal assay (agar well); format: cell-based, Penicillium expansum
Experimental: as §1

[28] = test system: C. albicans systemic infection; assay: Systemic candidiasis mouse model; format: in vivo, mice; conditions: for lung histopathology (H&E): vs non-treated infected mice; for serum levels of ALT, AST, uric acid, and creatinine: systemic candidiasis, day 7, compared with infected nontreated group (combination: also vs noninfected control)
Experimental: (§2) Four-week-old mice were obtained from Kafrelshikh university animal sourcing. Food and water were given ad libitum. The mice were handled according to the instructions and regulations of the ethics committee.
(§3) To help in the induction of fungal infection, mice were immunocompromised by Endoxan® (cyclophosphamide), injected i.v. at a dose rate of 100 mg/kg. The injection of cyclophosphamide was at three and one days before infection. Systemic candidiasis and aspergillosis were induced by intravenous injection of 0.2 ml of each cell suspension into the tail vein using 1-ml syringe and a 27-G, ½-in. needle. The C. albicans cells and Aspergillus conidia were obtained as described above. After plating, the cells were suspended in sterile saline. Each mouse received 5×10^4 blastospores. All drugs were given at a dose rate of 5 mg/kg via the oral route suspended in methylcellulose. […] Treatment was continued daily for seven days. On the seventh day, the mice were sacrificed, and blood and tissue samples were collected. Tissue samples from liver, kidney, lungs, and heart were stored in 10% formalin and fixed for histopathological and immunohistochemical examination.
(§4) Standard histopathological sections stained with hematoxylin and eosin were performed. Immunohistochemistry was performed following the instructions of the antibodies manufacturer (Theiino Scientific, Waltman, MA, USA). The antibodies comprised CD45 and CXCR4.
Serum samples from the systemic candidiasis experiments discussed above were analyzed using known techniques to detect serum levels of ALT, AST, uric acid, and creatinine.

[29] = test system: Syncephalastrurn racemosum RCMB 016001; assay: In vitro antifungal assay (agar well); format: cell-based, Syncephalastrum racemosum
Experimental: as §1

[30] = test system: C. albicans vaginal infection; assay: Vaginal candidiasis mouse model; format: in vivo, mice; conditions: for CD45-positive cells in vaginal tissue (IHC, semi-quantitative) / vaginal histology (H&E): topical into the vagina 5 mg/kg daily for seven days; for CXCR4 expression in the vaginal epithelial mucosa (IHC): treated for 7 days, vs C. albicans infected Model animals
Experimental: Standard histopathological sections stained with hematoxylin and eosin were performed. Immunohistochemistry was performed following the instructions of the antibodies manufacturer (Theiino Scientific, Waltman, MA, USA). The antibodies comprised CD45 and CXCR4. Mice vagina infected with C. albicans was used to evaluate the anticandidal actions of dabigatran. To help in induction of vaginal candidiasis, mice were immunocompromised by injection of 0.1 mg of β-estradiol in 10 μl of sesame oil 72 h and 24 h before vaginal infection for induction of estrus. Infection was done during the estrus phase by intravaginal dropping of the Candida blastoconidia. Each mouse received 3×10^6 blastospores into the vaginal cavity. Uninoculated control mice (the control group) were injected intravaginally with sterile saline. […] All drugs were given topically into the vagina at a dose rate of 5 mg/kg daily for seven days post-infection. On the seventh day, the mice were sacrificed, and blood and vaginal samples were collected. At ×400 magnification, five visual random fields were analyzed. An adopted procedure was used to assess the degree of infection and inflammation (Zhang, J. E., et al., “Feasibility of histological scoring and colony count for evaluating infective severity in mouse vaginal candidiasis,” Experimental Animals, 62(3): pp. 205-10 (2013)). The average scores of five fields were recorded.

[31] = test system: A. fumigatus systemic infection; assay: Systemic aspergillosis mouse model; format: in vivo, mice; conditions: for liver histopathology (H&E): vs infected animals; for heart histopathology (H&E): vs infected group; for serum levels of ALT, AST, uric acid, and creatinine: systemic A. fumigatus infection, day 7, compared with infected nontreated group (combination: also vs noninfected control)
Experimental: as §2, §3, §4
Serum samples from the systemic Aspergillus experiments discussed above were analyzed using known techniques to detect serum levels of ALT, AST, uric acid, and creatinine.

[32] = test system: Aspergillus furnigatus (RCMB 002008); assay: In vitro antifungal assay (agar well); format: cell-based, Aspergillus fumigatus
Experimental: as §1

[33] = immunocompromised mice, C. albicans i.v., 5 mg/kg oral daily for seven days
[34] = immunocompromised mice, A. fumigatus i.v., 5 mg/kg oral daily for seven days

For `CCCCCCOC(=O)NC(=N)c1ccc(NCc2nc3cc(C(=O)N(CCC(=O)OCC)c4ccccn4)ccc3n2C)cc1` [Dabigatran etexilate], the “range of MIC values” (31 fungal strains) was 8 to 256 µg/mL, the MIC [1] was 32 µg/mL (≈ 51 µM) and the MIC [2] was 128 µg/mL (≈ 204 µM). It also gave an MIC [3] of 32 µg/mL (≈ 51 µM), an MIC [4] of 256 µg/mL (≈ 408 µM) and an MIC [5] of 32 µg/mL (≈ 51 µM). The MIC [6] was 32 µg/mL (≈ 51 µM), the MIC [7] was 128 µg/mL (≈ 204 µM) and the MIC [8] was 32 µg/mL (≈ 51 µM). The MIC [9] was 16 µg/mL (≈ 25.5 µM), the MIC [10] was 16 µg/mL (≈ 25.5 µM) and the MIC [11] was 64 µg/mL (≈ 102 µM). It also gave an MIC [12] of 32 µg/mL (≈ 51 µM), an MIC [13] of 128 µg/mL (≈ 204 µM) and an MIC [14] of 16 µg/mL (≈ 25.5 µM). For the same molecule, the MIC [15] was 16 µg/mL (≈ 25.5 µM), the MIC [16] was 64 µg/mL (≈ 102 µM) and the MIC [17] was 128 µg/mL (≈ 204 µM). For the same molecule, the MIC [18] was 128 µg/mL (≈ 204 µM), the MIC [19] was 128 µg/mL (≈ 204 µM) and the MIC [20] was 16 µg/mL (≈ 25.5 µM). For the same molecule, the MIC [21] was 64 µg/mL (≈ 102 µM), the MIC [22] was 32 µg/mL (≈ 51 µM) and the MIC [23] was 64 µg/mL (≈ 102 µM). For the same molecule, the MIC [24] was 64 µg/mL (≈ 102 µM), the MIC [25] was 64 µg/mL (≈ 102 µM) and the MIC [26] was 128 µg/mL (≈ 204 µM). The MIC [27] was 128 µg/mL (≈ 204 µM), the “kidney histopathology (H&E)” value [28, 33] was “minor histological differences” and the “liver histopathology (H&E)” value [28, 33] was “typical hepatic architecture with the presence of very few inflammatory cells, moderate degeneration, and no necrosis”. The “lung histopathology (H&E)” value [28, 33] was “substantially improved”, the “protective effect against systemic C. albicans fungal infection” value ([28]; mice, 5 mg/kg oral daily for seven days) was “potent protective effect” and the “serum levels of ALT, AST, uric acid, and creatinine” value (“serum levels of ALT, AST, uric acid” below) [28] was “significantly decreased all serum markers”. The MIC [29] was 8 µg/mL (≈ 12.7 µM), the “CD4+ T cells in vaginal tissue (IHC, figure legends)” value ([30]; FIGS. 18 and 19, number / migration to lamina propria) was “dramatically decreased” and the “CD45-positive cells in vaginal tissue (IHC, semi-quantitative)” value [30] was “Mild to moderate CD45-positive cells spread across the submucosa”. For the same molecule, the “vaginal histology (H&E)” value [30] was “considerable reduction in inflammation and injury to the vaginal epithelial mucosa”, the “CXCR4 expression in the vaginal epithelial mucosa (IHC)” value [30] was “significant decrease” and the “kidney histopathology (H&E)” value [31, 34] was “modest improvements”. The “lung histopathology (H&E), inflammation” value [31, 34] was “decreased airspace areas because of red blood cells extravasation”, the “liver histopathology (H&E)” value [31, 34] was “Comparable histopathological injuries” and the “heart histopathology (H&E)” value [31, 34] was “comparable”. For the same molecule, the “serum levels of ALT, AST, uric acid” value [31] was “significantly decreased all serum markers” and the MIC [32] was 64 µg/mL (≈ 102 µM).
With `OC(Cn1cncn1)(Cn1cncn1)c1ccc(F)cc1F` [fluconazole] the “liver histopathology (H&E)” value [28, 33] was “moderate inflammatory cell infiltration in the perivascular regions, mild sinusoidal congestion, and few apoptotic cells”, the “lung histopathology (H&E)” value [28, 33] was “slightly ameliorated the lung damage” and the “serum levels of ALT, AST, uric acid” value [28] was “significant decrease in ALT levels only”. For the same molecule, the “CD45-positive cells in vaginal tissue (IHC, semi-quantitative)” value [30] was “Mild to moderate CD45-positive cells spread across the submucosa”, the “vaginal histology (H&E)” value [30] was “modest sub-epithelial inflammatory reaction” and the “CXCR4 expression in the vaginal epithelial mucosa (IHC)” value [30] was “significant decrease”. The “liver histopathology (H&E)” value [31, 34] was “Comparable histopathological injuries”, the “heart histopathology (H&E)” value [31, 34] was “comparable” and the “serum levels of ALT, AST, uric acid” value [31] was “significant decrease in all markers, except creatinine”.

Reference: US11446286B1 (KING FAISAL UNIVERSITY, priority 2022, dated 2022)
